Results: PubChem BioAssay AID330 (DTP/NCI, 2004)
Several values for one entry are separate records, joined by “and”; a condition that tells them apart may be missing. Equal values may be shown once. Toxic doses and inconclusive results are not listed. The calls were made as follows: active = survival T/C of 150% or more; inactive = T/C below 125% in these data.

System: P388 leukemia ip, CD2F1 mice, survival T/C
Test: NCI In Vivo Anticancer Drug Screen. Data for tumor model P388 Leukemia (intraperitoneal) in CD2F1 (CDF1) mice
Details: endpoint: median survival time, higher = longer survival
Summary of the method: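 Mice carrying the transplanted tumor received test compound or vehicle. Survival was recorded in each group, and the value is the treated-group measurement divided by that of the vehicle-treated control group.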

[1] = dose: 50.0 mg/kg/injection, schedule: Q01DX009 (ip), vehicle: saline with Tween-80
[2] = dose: 100.0 mg/kg/injection, schedule: Q01DX009 (ip), vehicle: saline with Tween-80
[3] = dose: 200.0 mg/kg/injection, schedule: Q01DX009 (ip), vehicle: saline with Tween-80
[4] = dose: 50.0 mg/kg/injection, schedule: Q01DX005 (ip), vehicle: saline with Tween-80
[5] = dose: 3.13 mg/kg/injection, schedule: Q01DX009 (ip), vehicle: saline
[6] = dose: 25.0 mg/kg/injection, schedule: Q01DX005 (ip), vehicle: Klucel (hydroxypropylcellulose) (HPC)
[7] = dose: 25.0 mg/kg/injection, schedule: Q01DX009 (ip), vehicle: saline with Tween-80

Measured: T/C

O=C1c2ccc([N+](=O)[O-])cc2NC(O)c2cccn21 (stereo not drawn)
inactive: dose: 0.1 mg/kg/injection, schedule: Q01DX005 (ip), vehicle: water 96 % of control | dose: 0.2 mg/kg/injection, schedule: Q01DX005 (ip), vehicle: water 96 % of control | dose: 0.4 mg/kg/injection, schedule: Q01DX005 (ip), vehicle: water 91 % of control | dose: 0.8 mg/kg/injection, schedule: Q01DX005 (ip), vehicle: water 96 % of control | dose: 1.6 mg/kg/injection, schedule: Q01DX005 (ip), vehicle: water 96 % of control | dose: 5.0 mg/kg/injection, schedule: Q01DX005 (ip), vehicle: distilled water + Tween-80 99 % of control | dose: 10.0 mg/kg/injection, schedule: Q01DX005 (ip), vehicle: distilled water + Tween-80 95 % of control | dose: 20.0 mg/kg/injection, schedule: Q01DX005 (ip), vehicle: distilled water + Tween-80 95 % of control | dose: 40.0 mg/kg/injection, schedule: Q01DX005 (ip), vehicle: distilled water + Tween-80 91 % of control | dose: 80.0 mg/kg/injection, schedule: Q01DX005 (ip), vehicle: distilled water + Tween-80 91 % of control

COc1cc(O)c2c(=O)c3c(O)c(OC4OC(COC5OC(C)C(O)C(O)C5O)C(O)C(O)C4O)ccc3oc2c1 (stereo not drawn)
inactive: dose: 1.5 mg/kg/injection, schedule: Q01DX009 (ip), vehicle: saline 107 % of control | dose: 3.0 mg/kg/injection, schedule: Q01DX009 (ip), vehicle: saline 103 % of control | dose: 6.0 mg/kg/injection, schedule: Q01DX009 (ip), vehicle: saline 100 % of control | dose: 12.0 mg/kg/injection, schedule: Q01DX009 (ip), vehicle: saline 99 % of control

C=CC[S+]1CCCCC1C=C (stereo not drawn)
inactive: dose: 100.0 mg/kg/injection, schedule: Q01DX001 (ip), vehicle: saline with Tween-80 94 % of control | dose: 200.0 mg/kg/injection, schedule: Q01DX001 (ip), vehicle: saline with Tween-80 95 % of control | dose: 400.0 mg/kg/injection, schedule: Q01DX001 (ip), vehicle: saline with Tween-80 95 % of control

C=C1C(=O)OC2C/C(C)=C/CC/C(C)=C/CCC3(C)OC3CC12 (stereo not drawn)
inactive: dose: 4.0 mg/kg/injection, schedule: Q01DX009 (ip), vehicle: Klucel (hydroxypropylcellulose) (HPC) 104 % of control | dose: 8.0 mg/kg/injection, schedule: Q01DX009 (ip), vehicle: Klucel (hydroxypropylcellulose) (HPC) 104 % of control | dose: 16.0 mg/kg/injection, schedule: Q01DX009 (ip), vehicle: Klucel (hydroxypropylcellulose) (HPC) 108 % of control | dose: 32.0 mg/kg/injection, schedule: Q01DX009 (ip), vehicle: Klucel (hydroxypropylcellulose) (HPC) 105 % of control

CC(C)C(=O)CCC(C)C1CCC2(C)C3CC=C4C(CCC(O)C4(C)C)C3(C)C(=O)CC12C (stereo not drawn)
inactive: dose: 100.0 mg/kg/injection, schedule: Q04DX002 (ip), vehicle: saline 100 % of control | dose: 200.0 mg/kg/injection, schedule: Q04DX002 (ip), vehicle: saline 98 % of control | dose: 400.0 mg/kg/injection, schedule: Q04DX002 (ip), vehicle: saline 99 % of control

O=C1OC(=O)C2CC=CCC12 (stereo not drawn)
inactive: [1] 95 % of control | [2] 93 % of control | [3] 100 % of control

COC1=CC(=O)C(Cc2ccc3c(c2)OCO3)=CC1=O
inactive: dose: 2.5 mg/kg/injection, schedule: Q01DX009 (ip), vehicle: saline with Tween-80 101 % of control | dose: 5.0 mg/kg/injection, schedule: Q01DX009 (ip), vehicle: saline with Tween-80 99 % of control | dose: 10.0 mg/kg/injection, schedule: Q01DX009 (ip), vehicle: saline with Tween-80 101 % of control

Nc1ccc(S(=O)(=O)n2c(=O)oc3ccc(Cl)cc32)cc1
inactive: dose: 50.0 mg/kg/injection, schedule: Q04DX002 (ip), vehicle: Klucel (hydroxypropylcellulose) (HPC) 97 % of control | dose: 100.0 mg/kg/injection, schedule: Q04DX002 (ip), vehicle: Klucel (hydroxypropylcellulose) (HPC) 97 % of control | dose: 200.0 mg/kg/injection, schedule: Q04DX002 (ip), vehicle: Klucel (hydroxypropylcellulose) (HPC) 90 % of control

CC1C[C@@H]2OC(=O)C(C)[C@@H]2C(O)[C@@]2(C)C(=O)C=CC12 (stereo partly drawn)
inactive: dose: 1.38 mg/kg/injection, schedule: Q01DX005 (ip), vehicle: Klucel (hydroxypropylcellulose) (HPC) 104 % of control | dose: 2.75 mg/kg/injection, schedule: Q01DX005 (ip), vehicle: Klucel (hydroxypropylcellulose) (HPC) 104 % of control | dose: 5.5 mg/kg/injection, schedule: Q01DX005 (ip), vehicle: Klucel (hydroxypropylcellulose) (HPC) 112 % of control | dose: 11.0 mg/kg/injection, schedule: Q01DX005 (ip), vehicle: Klucel (hydroxypropylcellulose) (HPC) 111 % of control

CC(C)(C)OC(=O)NC(COCc1ccccc1)C(=O)O (stereo not drawn)
inactive: [4] 103 % of control | dose: 100.0 mg/kg/injection, schedule: Q01DX005 (ip), vehicle: saline with Tween-80 98 % of control | dose: 200.0 mg/kg/injection, schedule: Q01DX005 (ip), vehicle: saline with Tween-80 97 % of control

Cc1ccc(C(=O)C(CN(C)C)CN(C)C)cc1
inactive: dose: 3.12 mg/kg/injection, schedule: Q01DX009 (ip), vehicle: saline 101 % of control and 90 % of control | [5] 112 % of control | dose: 6.25 mg/kg/injection, schedule: Q01DX009 (ip), vehicle: saline 110 % of control [middle of 4 runs] | dose: 12.5 mg/kg/injection, schedule: Q01DX009 (ip), vehicle: saline 107 % of control and 118 % of control

O=C(C#Cc1ccccc1)c1cccnc1
inactive: dose: 12.5 mg/kg/injection, schedule: Q04DX003 (ip), vehicle: Klucel (hydroxypropylcellulose) (HPC) 107 % of control | dose: 25.0 mg/kg/injection, schedule: Q04DX003 (ip), vehicle: Klucel (hydroxypropylcellulose) (HPC) 107 % of control

Cc1cc(C(=O)Nc2ccc(NC3=NCCN3)cc2)c(C)cc1C(=O)Nc1ccc(NC2=NCCN2)cc1
inactive: dose: 12.5 mg/kg/injection, schedule: Q01DX005 (ip), vehicle: Klucel (hydroxypropylcellulose) (HPC) 101 % of control | [6] 106 % of control

CCNCCNc1cc(O)c2c(c1O)C(=O)c1ccccc1C2=O
inactive: [6] 101 % of control and 102 % of control | dose: 50.0 mg/kg/injection, schedule: Q01DX005 (ip), vehicle: Klucel (hydroxypropylcellulose) (HPC) 110 % of control and 111 % of control | dose: 100.0 mg/kg/injection, schedule: Q01DX005 (ip), vehicle: Klucel (hydroxypropylcellulose) (HPC) 111 % of control and 112 % of control | dose: 200.0 mg/kg/injection, schedule: Q01DX005 (ip), vehicle: Klucel (hydroxypropylcellulose) (HPC) 122 % of control

CC(c1ccccc1)[P+](c1ccccc1)(c1ccccc1)c1ccccc1 (stereo not drawn)
inactive: dose: 0.78 mg/kg/injection, schedule: Q01DX009 (ip), vehicle: saline 112 % of control and 93 % of control | dose: 1.56 mg/kg/injection, schedule: Q01DX009 (ip), vehicle: saline 109 % of control and 118 % of control | [5] 118 % of control and 121 % of control

CC(c1ccccc1)C1NC(=O)NC1=O (stereo not drawn)
inactive: [7] 117 % of control | [1] 106 % of control | [2] 106 % of control

CCOC(=O)c1ccc([O-])c([I+]c2ccccc2)c1
inactive: dose: 50.0 mg/kg/injection, schedule: Q04DX003 (ip), vehicle: Klucel (hydroxypropylcellulose) (HPC) 100 % of control | dose: 100.0 mg/kg/injection, schedule: Q04DX003 (ip), vehicle: Klucel (hydroxypropylcellulose) (HPC) 100 % of control | dose: 200.0 mg/kg/injection, schedule: Q04DX003 (ip), vehicle: Klucel (hydroxypropylcellulose) (HPC) 101 % of control

CN1c2ccccc2S(=O)(=O)n2c(COc3ccc(Cl)cc3)nnc21
inactive: dose: 12.5 mg/kg/injection, schedule: Q01DX005 (ip), vehicle: saline with Tween-80 100 % of control | dose: 25.0 mg/kg/injection, schedule: Q01DX005 (ip), vehicle: saline with Tween-80 100 % of control | [4] 106 % of control

CC1(C)COC(CCCCCO)=N1
inactive: [1] 103 % of control | [2] 97 % of control | [3] 92 % of control

Nc1cc(NC=O)ncn1
inactive: [7] 102 % of control | [1] 105 % of control | [2] 102 % of control

CC(CCc1ccccc1)NC1=NCCO1 (stereo not drawn)
inactive: dose: 100.0 mg/kg/injection, schedule: Q04DX003 (ip), vehicle: saline with Tween-80 95 % of control | dose: 200.0 mg/kg/injection, schedule: Q04DX003 (ip), vehicle: saline with Tween-80 100 % of control | dose: 400.0 mg/kg/injection, schedule: Q04DX003 (ip), vehicle: saline with Tween-80 90 % of control

CN1CCC/C1=C/C(=O)c1ccccc1
inactive: dose: 100.0 mg/kg/injection, schedule: Q04DX003 (ip), vehicle: saline 100 % of control | dose: 200.0 mg/kg/injection, schedule: Q04DX003 (ip), vehicle: saline 111 % of control

COc1ccc(OC)c(NC(=O)NC(c2ccccc2)c2ccccc2)c1
inactive: dose: 3.12 mg/kg/injection, schedule: Q01DX009 (ip), vehicle: Klucel (hydroxypropylcellulose) (HPC) 96 % of control | dose: 6.25 mg/kg/injection, schedule: Q01DX009 (ip), vehicle: Klucel (hydroxypropylcellulose) (HPC) 90 % of control | dose: 200.0 mg/kg/injection, schedule: Q01DX009 (ip), vehicle: Klucel (hydroxypropylcellulose) (HPC) 93 % of control
